Experimental findings from PubChem BioAssay AID2305 (GlaxoSmithKline (GSK), 2010) are described below.

A word on the IC50: it is the concentration that inhibits the measured activity by half. The low end stands for higher potency, the high end for lower potency.

The subject of the assay is P. falciparum 3D7 growth, pLDH absorbance. The experiment in a line: P. falciparum 3D7 growth inhibition, dose response, strain 3D7 (AID 2305).

`c1cc(CNCC2CCCO2)cc(-c2ccc(-c3nc4ccccc4[nH]3)s2)c1` (centres undefined) registered a half-maximal inhibitory concentration (IC50) of 1170 nM.
The compound `CCCCc1cc(NC2CCN(C)CC2)nc(Nc2ccccc2)n1` had an IC50 of 660 nM.
`CCOc1cc(CC)ccc1C1CCN(CCN2CCC(CNC(=O)c3ccc(-c4ccc(C#N)cc4)cc3)CC2)CC1`: the IC50 worked out at 710 nM.
The compound `COc1ccc(CCn2c(=N)c(C(=O)NCc3ccccc3)cc3c(=O)n4cccc(C)c4nc32)cc1` showed an IC50 of 340 nM.
`Oc1ccc2[nH]c(-c3cccc(F)c3)nc2c1CNCc1ccccc1`: the half-inhibitory concentration (IC50) was found to be 920 nM. Against the preceding compound, the IC50 is about 2.7-fold higher.
`COc1ccc2ncc(F)c(CCN3C[C@H](CNCc4ccc5oc(=O)ccc5c4)[C@H](O)C3)c2n1` showed an IC50 of 950 nM.
`COc1ccc(Cl)cc1N1CCN(CCCNC(=O)c2ccc(-c3nc4cc(Cl)c(F)cc4[nH]3)s2)CC1` showed an IC50 of 310 nM. Against the preceding compound, the IC50 is about 3.1-fold lower.
`CCC1(C)N=C(N)N=C(N)N1c1ccc(Cl)cc1` (centres undefined) gave an IC50 of 160 nM.
`CC(Cc1ccc(Sc2ccccc2)cc1)NCC(O)c1cccc(C(F)(F)F)c1` (centres undefined) registered an IC50 of 590 nM. Against the preceding compound, the IC50 is about 3.7-fold higher.
For the compound `NC(=O)c1cccc(Nc2nccc(Nc3ccc4[nH]c(-c5ccccc5)cc4c3)n2)c1`, the IC50 is 780 nM. The IC50 values of the last two compounds are within 1.5-fold of each other.
Compound `CC(C)CNCc1ccc(OCc2cccc(COc3ccc(CNCC(C)C)cc3I)c2)c(I)c1` came in with an IC50 of 770 nM.
In the case of `COc1ccc(C=NNc2ccnc3cc(F)c(C)cc23)c2ccccc12`, the IC50 was 770 nM.
Under `O=C(Cc1cccc2ccccc12)NC1CCN(c2ccnc3cc(Cl)ccc23)C1` (centres undefined) stands 250 nM; under `NC(N)=NC(=O)Nc1cc(F)c(Cl)c(Cl)c1`, 500 nM.
`CC(=O)c1ccc(N2C(=O)C3C(Cc4ccc(OC(C)(C)C)cc4)NC4(C(=O)N(Cc5ccc(C(C)(C)C)cc5)c5ccccc54)C3C2=O)cc1` (centres undefined) displayed an IC50 of 1280 nM. This IC50 lies about 2.6-fold higher than the previous one.
Take `CCN(CC)CCN(Cc1ccc(-c2ccc(C(F)(F)F)cc2)cc1)C(=O)Cn1c(CCc2ccc(F)c(F)c2F)nc(=O)c2cccnc21`: the IC50 worked out at 1130 nM. The IC50 values of the last two compounds are within 1.5-fold of each other.
Take `CCN(CCS(C)(=O)=O)Cc1ccc(-c2ccc3ncnc(Nc4ccc(OCc5cccc(F)c5)c(Cl)c4)c3c2)o1`: the IC50 was 610 nM.
Under `O=C(/C=C/c1ccc(Cl)c(Cl)c1)NCCCCCN1CCC(c2c[nH]c3cc(O)ccc23)CC1` stands 750 nM.
Under `CS(=O)(=O)c1ccc(CCNCc2ccc(-c3ccc(CNC4Cc5ccccc5C4)cc3)nc2)cc1` stands 760 nM; under `COc1ccc(C(=O)Nc2ccc(-c3ccc([N+](=O)[O-])cc3)cc2)cc1CCCN(C)C`, 800 nM; under `OCCN1CCN(C(=S)NC2CCCCC2)CC1`, 1100 nM.
`COc1ccc(C(=O)Nc2ccc3oc(-c4ccc(C(F)(F)F)cc4)cc3c2)cc1CCCN(C)C` had an IC50 of 700 nM.
The compound `COCCn1c(Sc2ccc(C#N)c([N+](=O)[O-])c2)nnc1-c1ccc(N(C)C)cc1` came in with an IC50 of 1030 nM. This IC50 and that of the compound before are within 1.5-fold of each other.
`Cc1ccc(F)cc1S(=O)(=O)Nc1ccc(CCN2CCC(N3CCCCC3)CC2)cc1` returned a half-maximal inhibitory concentration (IC50) of 720 nM.
`O=C(Oc1ccc(C2CNCCc3c2cc(OC(=O)c2ccc(O)cc2)c(OC(=O)c2ccc(O)cc2)c3Cl)cc1)c1ccc(O)cc1` (centres undefined) displayed an IC50 of 980 nM.
`Fc1ccccc1-c1cc(Nc2ccncc2)nc(-c2cccnc2)n1` registered an IC50 of 260 nM.
For `Cn1c(NC2=NC3(c4ccccn4)N=C(Nc4nc5ccccc5n4C)NC3(c3ccccn3)N2)nc2ccccc21` (centres undefined), the IC50 came out at 1040 nM.
Compound `O=C(Nc1cc(F)cc(F)c1)N1CCOC(CCN2CCC(c3ccccc3)CC2)(c2ccc(Cl)c(Cl)c2)C1` (centres undefined) yielded an IC50 of 470 nM.
The compound `CC(C)c1ccc(NC(=O)c2ccc(CN3CCCN(Cc4cccc(Cl)c4)CC3)cc2)cc1` came in with an IC50 of 1160 nM.
Regarding `Cc1ccccc1-c1cc(=O)c2cc(NC(=O)c3cccs3)ccc2o1`, the IC50 was 220 nM.
Compound `Cc1cc(C)c(C(=O)Nc2n[nH]c3nnc(-c4cccc(F)c4F)cc23)c(C)c1` yielded an IC50 of 1070 nM. This IC50 is about 4.9-fold higher than that of the compound before.
The compound `COc1ccc(Nc2nccc(-c3cccc(NC(=O)c4cc5cc(F)ccc5[nH]4)c3)n2)cc1` yielded an IC50 of 1030 nM.
Under `O=C(NC1CCCC1)c1ccc(N2CCC(NCc3cc4cc(Cl)ccc4[nH]3)CC2)cc1` stands 1220 nM; under `COc1ccc(C(=O)N2CCC3(CC2)C(=O)N(CC(=O)NC2CCCCC2)CN3c2ccccc2)c(OC)c1`, 220 nM.
`CCC[C@@H]([C@@H](CC1CCCCC1)C(=O)N[C@H](C(=O)Nc1nccs1)[C@@H](C)OCc1ccccc1)N(O)C=O` showed an IC50 of 80 nM. This IC50 lies about 2.8-fold lower than the previous one.
`Cc1cccc2[nH]c(-c3ccc(-c4ccc(CNCc5ccccc5)cc4)s3)nc12` yielded a concentration for half-maximal inhibition (IC50) of 210 nM.
Turning to `COc1cc(CNCCCCCCNCc2cc(OC)c(OC)c3ccccc23)c2ccccc2c1OC`, the IC50 amounted to 230 nM.
The compound `COc1ccc2nccc([C@@H](O)CN3CC[C@H](NCc4ccc5c(n4)NC(=O)CS5)[C@H](F)C3)c2c1` gave an IC50 of 910 nM. This IC50 lies about 4-fold higher than the previous one.
Under `Cc1cc(N[C@@H](Cc2ccccc2)C(=O)NCc2cccc(F)c2)nc(NCc2ccccc2C)n1` stands 980 nM; under `COc1ccccc1C1CCN(C2CCC(NC(=O)/C=C/c3ccc(OC(F)(F)F)cc3)CC2)CC1` (centres undefined), 1350 nM; under `Cc1ccc(-c2nc3cc(NC(=O)c4ccc([N+](=O)[O-])o4)ccc3o2)cc1Cl`, 160 nM.
Under `O=C(NCCCCN1CCC(c2ccc3ccccc3c2)CC1)c1ccc(NC(=O)c2ccc(Cl)cc2)cc1` stands 230 nM; under `C#CCNC(=O)c1ccc(-c2ccnc(Nc3cccc(CCCN4CCOCC4)c3)n2)s1`, 1000 nM.
As to `O=C(NCCc1ccccc1)N(Cc1ccccc1-c1ccc(CNCCc2ccccc2)cc1)C1CCN(Cc2ccccc2)CC1`, the IC50 is 720 nM.
Under `CC(C)(C(=O)NCCC1CCN(CCCCCNC(=O)/C=C/c2ccc(Cl)c(Cl)c2)CC1)c1ccc(Cl)cc1` stands 1280 nM; under `Fc1ccc(-c2nc(NCc3cccc(C(F)(F)F)c3)nn2-c2cccc(C(F)(F)F)c2)cc1C(F)(F)F`, 1050 nM; under `O=C(Nc1ccc2c(c1)CCN(C1CCC1)CC2)c1ccc(-n2ccnc2)cn1`, 370 nM.
As to `C[C@@H](CC1CCCCC1)OC(=O)N(C)[C@H]1CCN(C#N)C1`, the IC50 came out at 220 nM.
With `NCC1CCCN1Cc1ccc(-c2ccc(-c3nc4ccc(F)cc4[nH]3)cc2)cc1` (centres undefined), the IC50 turned out to be 930 nM.
For the compound `O=C(CC1NC(=O)c2ccccc21)Nc1ccc(-c2cccc(-c3nc4ccc(C(F)(F)F)cc4[nH]3)c2)cc1` (centres undefined), the IC50 turned out to be 960 nM.
Turning to `O=C(Cc1ccccc1)NC1CCN(c2ccnc3cc(Cl)ccc23)C1` (centres undefined), the IC50 was found to be 800 nM.
In turn, `O=C(c1cc(-c2cccs2)[nH]n1)N1CCN(S(=O)(=O)c2ccc(Br)cc2)CC1` displayed an IC50 of 360 nM.
Compound `CC1(CCN2CCC(c3c[nH]c4cnccc34)CC2)CCCc2c(Br)cccc2C1=O` (centres undefined) registered an IC50 of 200 nM.
Take `Cc1onc(-c2c(F)cccc2Cl)c1C(=O)Nc1ccccc1I`: the IC50 stood at 950 nM. This IC50 is about 4.8-fold higher than that of the compound before.
With `O=C(NC(CCCN1CCC(c2ccccc2)CC1)c1ccc(Cl)c(Cl)c1)c1cc(C(F)(F)F)cc(C(F)(F)F)c1` (centres undefined), the IC50 was determined as 860 nM.
As to `Cc1cccc2[nH]c(-c3ccc(-c4ccc(NC(=O)Nc5ccc(Cl)cc5)cc4)s3)nc12`, the IC50 came out at 150 nM.
In turn, `CC(=O)Nc1nc(C(=O)Nc2ccc(-c3cccc(-c4nc5ccccc5[nH]4)c3)cc2)cs1` registered an IC50 of 550 nM.
Under `O=[N+]([O-])c1ccccc1C=NNc1ccnc2ccccc12` stands 860 nM; under `COc1ccc2ncc(F)c(CCN3CCC(NCc4cc(F)c5c(c4)OCCO5)CC3)c2n1`, 350 nM.
Consider `CCCCC(CCCC)CN1C(=O)C(c2ccccc2)(c2ccccc2)N=C1N`, for which the IC50 is 180 nM.
`O=C(NCCCCN1CCC(c2cccc3ccccc23)CC1)c1ccc(NC(=O)c2ccc(Cl)cc2)cc1`: the IC50 was determined as 780 nM. This IC50 is about 4.3-fold higher than that of the compound before.
Under `CN(c1ccc2c(c1)nc(Nc1cc(C(C)(C)C)on1)n2C)c1ccnc(Nc2ccc(CS(C)(=O)=O)cc2)n1` stands 900 nM; under `CCOC(=O)c1ccc(COc2ccc(C)nc2)cc1`, 540 nM.
`Cc1cccc2[nH]c(-c3ccc(-c4ccc(CNCc5cccc(N)c5)cc4)cc3)nc12` registered an IC50 of 570 nM.
Compound `CCCOc1c(CCNCCCCNCCc2ccc3ccccc3c2OCCC)ccc2ccccc12` displayed an IC50 of 480 nM.
Compound `C[C@@H]1CN(c2ccc3occ(C(=O)Nc4ccc(-c5ccncc5)c(Cl)c4)c3c2)C[C@H](C)N1C` came in with an IC50 of 850 nM.
For the compound `O=C(Nc1ccc(-c2cccc(-c3nc4ccc(C(F)(F)F)cc4[nH]3)c2)cc1)c1cccnc1`, the IC50 came to 720 nM.
Compound `O=C(Nc1ccc(Cl)c(Cl)c1)Nc1ccc2c(c1)CCNCC2` yielded an IC50 of 530 nM. This IC50 and that of the compound before are within 1.5-fold of each other.
Consider `CC(C)Nc1nc(NCCc2cnc[nH]2)nc(Nc2ccc(Oc3ccccc3)cc2)n1`, for which the IC50 worked out at 890 nM.
Under `CC(C)(C)c1ccc(CNC(=O)/C=C/c2ccc(-c3nc4ccc(C(C)(C)C)cc4[nH]3)cc2)cc1` stands 540 nM.
In the case of `Cc1cccc(C)c1OC(=O)CSc1nnc(-c2ccccc2O)o1`, the IC50 was 880 nM. Against the preceding compound, the IC50 is about 1.6-fold higher.
`COc1ccc(C=NNc2cc(C)nc3ccccc23)c(OC)c1` showed an IC50 of 620 nM.
Compound `C=C[C@H]1CN(CCCCCCC)CC[C@H]1CC(O)Cc1ccnc2cc(O)c(OC)cc12` (some centres undefined) had an IC50 of 820 nM.
With `Cc1sc2cc(Cl)cc(Cl)c2c1S(=O)(=O)Nc1ccc2nccc(N3CCNCC3)c2c1`, the IC50 is 120 nM. This IC50 is about 6.8-fold lower than that of the compound before.
As to `c1ccc(Oc2ccc(Nc3ccnc4ccc(-c5ccco5)cc34)cc2)cc1`, the half-maximal inhibitory concentration (IC50) is 930 nM.
Under `CC(=O)Nc1nc(C(=O)Nc2cccc(-c3cccc(-c4nc5ccc(F)cc5[nH]4)c3)c2)cs1` stands 90 nM; under `COc1ccc2nccc(NC(=O)C3CCC(NCc4cnc(SC)c([N+](=O)[O-])c4)CC3)c2n1` (centres undefined), 930 nM; under `CCCCN1CCCN(Cc2cccc(NC(=O)c3ccc(-c4ccccc4)cc3)c2)CC1`, 1030 nM.
`CC(C)(C(=O)Nc1ccc(C2CCC(NCC3CC3)CC2)c(Cl)c1)c1cccc(OC(F)F)c1` (centres undefined) gave an IC50 of 970 nM.
`Cc1cccc2[nH]c(-c3ccc(-c4cccc(CNCCN5CCNCC5)c4)cc3)nc12` came in with an IC50 of 1230 nM.
Under `C#CCOc1ccccc1CN1CCC(N2CCc3cc(NC(=O)c4cc(C)on4)ccc32)C1` (centres undefined) stands 680 nM; under `COc1cccc(CN2CCCN(Cc3cccc(NC(=O)c4cc5ccccc5s4)c3)CC2)c1`, 1010 nM.
Under `COc1ccc(NC(=O)C2CCN(CCCCCNC(=O)/C=C/c3ccc(Cl)c(Cl)c3)CC2)cc1` stands 830 nM; under `COc1cc(C(C)C)ccc1C1CCN(CCCCNC(=O)c2ccc(NC(=O)c3ccc(Cl)cc3)cc2)CC1`, 450 nM.
